From PMC4956231, “Molecular Mechanisms for Drug Hypersensitivity Induced by the Malaria Parasite’s Chloroquine Resistance Transporter” (PLoS Pathogens, 2016)
Marks after values point to notes of the source that are not given here.

Tests used:
PfCRT^Dd2 [1] = assay: [3H]drug transport into Xenopus oocytes expressing PfCRT; type: cell-based, Plasmodium falciparum; conditions: PfCRT^Dd2-expressing oocytes; [3H]CQ […], pH 5.5, 15 μM unlabeled CQ (S5 Fig)
Procedure: (§1) For each treatment, 10 oocytes were transferred to a 5 mL polystyrene round bottom tube (Falcon) and washed twice with 3.5 mL of ND96 buffer, with the residual buffer removed by pipette. […] The assay was terminated by removing the reaction buffer with a pipette and washing the oocytes twice with 3.5 mL of ice-cold ND96 buffer. Each oocyte was transferred to a separate well of a white 96-well plate (NUNC or PerkinElmer), incubated overnight at room temperature in 30 μL of 10% SDS, and mixed on an orbital shaker the following day for approximately 5 min. The lysed oocyte was then combined with 150 μL of MicroScint-40 microscintillant (PerkinElmer), the plate covered with a TopSeal-A (PerkinElmer), and the radioactivity measured with a PerkinElmer MicroBeta^2 microplate liquid scintillation analyzer.

P. falciparum Dd2 = conditions: Dd2 (PfCRT^Dd2); IC50 in line divided by IC50 in drug-sensitive reference strain; cited from earlier work
[2] = system: P. falciparum line 106/1^72R,76I; conditions: 106/1^72R,76I (72R,76I-PfCRT^K1); IC50 in line divided by IC50 in drug-sensitive reference strain; cited from earlier work
[3] = system: P. falciparum line 106/1^76I; conditions: 106/1^76I (76I-PfCRT^K1); IC50 in line divided by IC50 in drug-sensitive reference strain; cited from earlier work
P. falciparum line K1AM = conditions: K1AM (163R,356V-PfCRT^K1); IC50 in line divided by IC50 in drug-sensitive reference strain; cited from earlier work
76N-PfCRT^K1 = assay: [3H]drug transport into Xenopus oocytes expressing PfCRT; type: cell-based, Plasmodium falciparum; conditions: transport via 76N-PfCRT^K1 in oocytes, CQ pH 6.0, quinine and quinidine pH 5.0
Procedure: as §1
Note that noninjected oocytes and oocytes expressing PfCRT^3D7 take up [^3H]CQ to similar (low) levels via simple diffusion of the neutral species of the drug; this represents the ‘background’ level of [^3H]CQ accumulation in oocytes (refer to Martin et al. for full data and discussion).

PfCRT^K1 [4] = conditions: oocytes; cited from earlier work
[5] = system: P. falciparum line 106/1^76N; conditions: 106/1^76N (76N-PfCRT^K1); IC50 in line divided by IC50 in drug-sensitive reference strain; cited from earlier work
[6] = system: P. falciparum line 106/1^76I,369F; conditions: 106/1^76I,369F (76I,369F-PfCRT^K1); IC50 in line divided by IC50 in drug-sensitive reference strain; cited from earlier work
P. falciparum 106/1 = conditions: 106/1 (76K-PfCRT^K1); IC50 in line divided by IC50 in drug-sensitive reference strain; cited from earlier work
[7] = system: P. falciparum line 106/1^76I,352K; conditions: 106/1^76I,352K (76I,352K-PfCRT^K1); IC50 in line divided by IC50 in drug-sensitive reference strain; cited from earlier work
PfCRT^K1 [8] = assay: Trans-stimulation of [3H]CQ uptake by microinjected compound in oocytes; type: cell-based, Plasmodium falciparum
Procedure: (§2) A subset of experiments measured the ability of unlabeled amantadine to trans-stimulate the uptake of [^3H]CQ into the oocyte. Immediately prior to the commencement of the experiment, the oocytes (days 3–4 post-injection of the cRNA) were microinjected with either amantadine (estimated intracellular concentrations of 1, 2.5, 5, 10, 15, or 20 mM) or a control treatment (buffer, spermine, or histidine; the estimated intracellular concentrations of spermine and histidine were 5 and 10 mM). The volume injected was 50 nL and the intracellular concentrations were calculated using previous estimates of the volume of stage V-VI oocytes (~400 nL [77]). The resealed oocytes were then incubated at 16–18°C in OR^2+ buffer for approximately 5 min and the influx of [^3H]CQ was measured as described above. […] The Michaelis-Menten equation was then fitted to the data to derive the kinetic parameters for the trans-stimulation of [^3H]CQ transport by amantadine.

76K-PfCRT^K1 [9] = assay: as above; type: cell-based, Plasmodium falciparum; conditions: oocytes expressing 76K-PfCRT^K1, microinjected amantadine
Procedure: as §2

PfCRT^Dd2 [10] = assay: as above; type: cell-based, Plasmodium falciparum; conditions: oocytes expressing PfCRT^Dd2 microinjected with unlabeled amantadine
Procedure: as §2

PfCRT^3D7 = assay: as above; type: cell-based, Plasmodium falciparum; conditions: oocytes expressing PfCRT^3D7, microinjected amantadine
Procedure: as §2

163R,356V-PfCRT^K1 = assay: [3H]drug transport into Xenopus oocytes expressing PfCRT; type: cell-based, Plasmodium falciparum; conditions: oocytes expressing 163R,356V-PfCRT^K1; pH 5.0, 50 μM unlabeled amantadine
Procedure: as §1

76K-PfCRT^K1 [11] = assay: as above; type: cell-based, Plasmodium falciparum; conditions: oocytes expressing 76K-PfCRT^K1; pH 5.0, 50 μM unlabeled amantadine
Procedure: as §1

noninjected oocytes = assay: Trans-stimulation of [3H]CQ uptake by microinjected compound in oocytes; type: cell-based, Xenopus laevis; conditions: microinjected amantadine
Procedure: as §2

76I-PfCRT^K1 = 76I-PfCRT^K1 (Plasmodium falciparum, UniProt Q9N623, A220S/K76I/M74I/N326S/N75E/Q271E/R371I); assay: as above; type: cell-based
Sequence of 76I-PfCRT^K1 (Q9N623 whole entry A220S/K76I/M74I/N326S/N75E/Q271E/R371I): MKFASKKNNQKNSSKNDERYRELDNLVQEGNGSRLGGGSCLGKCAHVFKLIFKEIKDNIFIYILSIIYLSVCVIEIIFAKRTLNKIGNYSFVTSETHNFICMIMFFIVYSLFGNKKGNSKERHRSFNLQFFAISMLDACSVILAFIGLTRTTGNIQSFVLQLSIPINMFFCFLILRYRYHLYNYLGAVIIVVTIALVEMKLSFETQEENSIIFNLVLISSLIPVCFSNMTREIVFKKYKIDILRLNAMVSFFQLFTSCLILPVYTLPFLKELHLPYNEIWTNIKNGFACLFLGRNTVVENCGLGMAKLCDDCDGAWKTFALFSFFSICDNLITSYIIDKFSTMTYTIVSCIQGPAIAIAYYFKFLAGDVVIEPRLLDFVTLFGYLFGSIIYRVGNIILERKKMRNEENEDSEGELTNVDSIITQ
Procedure: as §2

76I,369F-PfCRT^K1 = 76I,369F-PfCRT^K1 (Plasmodium falciparum, UniProt Q9N623, A220S/K76I/M74I/N326S/N75E/Q271E/R371I/V369F); assay: as above; type: cell-based
Sequence of 76I,369F-PfCRT^K1 (Q9N623 whole entry A220S/K76I/M74I/N326S/N75E/Q271E/R371I/V369F): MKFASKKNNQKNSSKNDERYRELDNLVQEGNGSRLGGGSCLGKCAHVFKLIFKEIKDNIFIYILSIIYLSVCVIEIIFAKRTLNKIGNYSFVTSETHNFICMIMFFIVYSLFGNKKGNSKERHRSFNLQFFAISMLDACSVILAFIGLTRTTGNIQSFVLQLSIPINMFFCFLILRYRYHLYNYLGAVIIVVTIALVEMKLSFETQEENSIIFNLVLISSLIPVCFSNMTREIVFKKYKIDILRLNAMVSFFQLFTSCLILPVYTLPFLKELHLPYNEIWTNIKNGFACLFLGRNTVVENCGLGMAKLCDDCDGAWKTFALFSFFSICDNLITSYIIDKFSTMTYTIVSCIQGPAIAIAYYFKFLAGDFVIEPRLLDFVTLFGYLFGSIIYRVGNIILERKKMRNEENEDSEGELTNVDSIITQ
Procedure: as §2

PfNT1 = PfNT1 (Plasmodium falciparum, UniProt Q8IDM6); assay: as above; type: cell-based; conditions: oocytes expressing PfNT1, microinjected amantadine
Sequence of PfNT1 (Q8IDM6 whole entry): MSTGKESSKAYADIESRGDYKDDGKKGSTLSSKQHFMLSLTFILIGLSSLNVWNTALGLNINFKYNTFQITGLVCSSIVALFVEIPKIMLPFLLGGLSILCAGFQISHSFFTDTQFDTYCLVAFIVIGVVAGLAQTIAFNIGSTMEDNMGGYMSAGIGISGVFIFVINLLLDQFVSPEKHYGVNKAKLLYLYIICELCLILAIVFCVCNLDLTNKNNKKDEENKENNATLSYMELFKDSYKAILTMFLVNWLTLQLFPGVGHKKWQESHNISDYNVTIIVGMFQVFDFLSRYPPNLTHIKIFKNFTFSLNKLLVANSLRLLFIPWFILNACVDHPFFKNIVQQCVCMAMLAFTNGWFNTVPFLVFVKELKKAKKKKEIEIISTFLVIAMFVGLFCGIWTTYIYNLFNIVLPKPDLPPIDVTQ
Procedure: as §2

Question: What does the source list for CCN(CC)CCCC(C)Nc1ccnc2cc(Cl)ccc12 (stereo not shown) [CQ, chloroquine]?
Answer: rate of CQ uptake (PfCRT^Dd2 [1]): 24 ± 1.3 pmol per oocyte/h; Drug susceptibility (In vitro resistance index) (P. falciparum Dd2): 11.78 ± 0.18; Drug susceptibility (In vitro resistance index) [2]: 1.13 ± 0.07; Drug susceptibility (In vitro resistance index) [3]: 15.66 ± 2.20; Drug susceptibility (In vitro resistance index) (P. falciparum line K1AM): 0.95; Apparent Vmax (76N-PfCRT^K1): 48.0 ± 4.5^c,f (7) pmol per oocyte/h; Km (76N-PfCRT^K1; read-out: Apparent Km): 303 ± 5 µM; CQ transport activity of PfCRT^K1, higher than that of PfCRT^Dd2 (PfCRT^K1 [4]): ~ 20%; Drug susceptibility (In vitro resistance index) [5]: 8.60 ± 0.90; Drug susceptibility (In vitro resistance index) [6]: 3.53; Drug susceptibility (In vitro resistance index) (P. falciparum 106/1): 1.10 ± 0.06; Drug susceptibility (In vitro resistance index) [7]: 0.91 ± 0.09

Question: Which results are given for NC12CC3CC(CC(C3)C1)C2 [amantadine]?
Answer: Hill coefficient (trans-stimulation of [3H]CQ uptake) (PfCRT^K1 [8]; PfCRT^K1): 1.63 ± 0.12; increase in the rate of CQ influx (trans-stimulation) (PfCRT^K1 [8]; oocytes expressing PfCRT^K1 microinjected with unlabeled amantadine): 6.4 ± 0.2 pmol per oocyte/h; effect on accumulation of [3H]CQ (trans-stimulation) (76K-PfCRT^K1 [9]): did not affect; increase in the rate of CQ influx (trans-stimulation) (PfCRT^Dd2 [10]): 6.7 ± 0.3 pmol per oocyte/h; effect on accumulation of [3H]CQ (trans-stimulation) (PfCRT^3D7): did not affect; [3H]amantadine accumulation relative to background (163R,356V-PfCRT^K1): failed to take up; [3H]amantadine accumulation relative to background (76K-PfCRT^K1 [11]): failed to take up; effect on accumulation of [3H]CQ (trans-stimulation) (noninjected oocytes): did not affect; Hill coefficient (trans-stimulation of [3H]CQ uptake) (76I-PfCRT^K1; 76I-PfCRT^K1): 1.49 ± 0.07; increase in the rate of CQ influx (trans-stimulation) (76I-PfCRT^K1; oocytes expressing 76I-PfCRT^K1 microinjected with unlabeled amantadine): 0.68 ± 0.04 pmol per oocyte/h; Hill coefficient (trans-stimulation of [3H]CQ uptake) (76I,369F-PfCRT^K1; 76I,369F-PfCRT^K1): 1.46 ± 0.05; increase in the rate of CQ influx (trans-stimulation) (76I,369F-PfCRT^K1; oocytes expressing 76I,369F-PfCRT^K1 microinjected with unlabeled amantadine): 0.43 ± 0.02 pmol per oocyte/h; effect on accumulation of [3H]CQ (trans-stimulation) (PfNT1): did not affect
